The values below come from US5141627A, “Chelators whose affinity for calcium ion is increased by illumination” (The Regents of the University of California, priority 1989, dated 1992).

By Kd is commonly meant the free concentration of one partner at which half of the binding sites on the other are occupied at equilibrium, for simple one-to-one binding.

Where two headings read alike, the source gives them in different places.

Data set [1] in a line: Ca2+ affinity by UV spectra during titration of EGTA or HEEDTA buffers. The class given is binding. The method, then: The titration was done at 22° C. with 10 mL of 100 mM KCl, 10 mM K-MOPS, 10 mM K2 H.HEEDTA, and 14 […] diazo-2 as starting materials, adjusting the pH to 7.24, recording the spectrum, and then discarding 1.0 mL of this solution and replacing with 1.0 mL of 100 mM KCl, 10 mM K.MOPS, 10 mM KCa.HEEDTA, 14 μM diazo-2, readjusting the pH to 7.24, and recording the spectra, which was then in 9 mM K2H.HEEDTA. Subsequent iterations to reach n mM KCa.HEEDTA, (10-n) mM HEEDTA, n=2-10, were done by discarding 10.0/(11-n) mL and replacing with equal volumes of the 10mM KCa.HEEDTA, 14 μM diazo-2 stock. After n=10 had been reached to give free Ca^2+ between 10^-5 and 10^-4 M, addition of 1 mM CaCl2 had no further effect on the spectrum. For clarity only six spectra are including in the figure, n=0, 2, 4, 6, 8, and 10. Each spectrum is labeled with the calculated free [Ca^2+ ] imposed by the HEEDTA buffer, assuming a log effective stability constant of 5.55 at pH 7.24.
The phenylacetate was produced by irradiating a 30 μM solution of diazo-2 in 100 mM KCl, 10 mM Tris.HCl, 10 mM K2 H.HEEDTA, pH 8.40, with Spectroline lamp at 365 nm to completion. The titration was then performed as in A but the pH was maintained at 8.40, at which the calculated log effective stability is constant for HEEDTA was 6.60.
Ca^2+ -binding constants for chelators before and after photolysis were determined by monitoring UV spectra during titration of EGTA or HEEDTA buffers to varying free Ca^2+ levels.
Either the ratio of, for example, [Ca.EGTA] to free [EGTA] was adjusted at a constant pH, or the pH was varied while [Ca.EGTA]=[EGTA]. These two approaches gave equivalent answers for pH>7 whenever directly tested, because of the pH insensitivity of BAPTA-like ligands (see FIG. 1 legend for more details). The apparent dissociation constants of Ca.EGTA and Ca.HEEDTA were calculated as described by R. Y. Tsien (1980); see also R. Y. Tsien, et al. (1986), S. R. Adams, et al. (1980), Grynkiewicz, et al., (1985), and Jackson, et al. (1987).

A short description of data set [2]: Chemical stability in aqueous base or acid. The class given is physicochemical. From the text:
Diazo-2 tetramethyl ester, Compound 3J, was saponified to the tetra-anion by dissolution in methanol (gentle heat), addition of an excess of aqueous 1M potassium hydroxide solution and keeping at room temperature several hours, preferably overnight. […] The purity of diazo-2 solutions can be determined by measuring the extent of absorbance change on complete photolysis (FIG. 1B) as contaminants contribute absorbance at 355 nm. Diazo-1, -3, and -4 esters were saponified analogously.

For the next data set, the system named is cells. As to the kind of experiment: Effect in cells of microinjected chelator on Ca2+ after photolysis. The class given is cell-based. Particulars: microinjected into cells.
The nature of data set [3]: Ca2+ affinity by UV spectra during titration of EGTA or HEEDTA buffers. Particulars: after photolysis; 0.25M ionic strength (0.2M KCl, 0.05M NaCl), 18° C. The class given is binding.
Data set [4] can be described thus: Covalent modification of lysine by photochemical intermediates (HPLC). Particulars: pH 7.2. The method, then:
To study the extent to which biological substrates are covalently modified by reactive intermediates generated by the photolysis of the diazoketones,100 μM diazo-3 in the presence of 10 mM phosphate and either 100 mM KCl or 100 mM lysine.HCl, at pH 7.2 was photolyzed. The photolysates were analyzed by HPLC (Waters Associates, Inc., Milford, Mass.; C-18 column, Supelco, Inc., Bellefonte, Pa.), with 10 mM KH2 PO4 /K2 HPO4 buffer at pH 7.2 as eluting solvent. The absorbance of the eluate at 254 nm was monitored. Before being injected onto the column, concentrated stock solutions of either KCl or lysine.HCl were added to the photolysate to insure that the electrolyte composition of the injected samples were identical. Thus, 10 μL of 1M KCl were added to 100 μL of the samples of diazo-3 photolyzed in lysine.HCl, while 10 μL of 1M lysine.HCl were added to 100 μL of the sample of diazo-3 photolyzed in KCl.

With `Cc1ccc(N(CC(=O)O)CC(=O)O)c(OCCOc2cc(C(=O)C=[N+]=[N-])ccc2N(CC(=O)O)CC(=O)O)c1` [diazo-2, 1-(2-bis(carboxymethyl)amino-5-methyl) phenoxy-2-(2-bis(carboxymethyl)amino-5-(diazoacetyl)phenoxy) ethane], the Kd came to 0.073 µM in data set [1] (after photolysis, 0.1-0.15M ionic strength, 20-23° C., read-out: Kd (Ca2+), after photolysis); 2.2 µM in data set [1] (before photolysis, 0.1-0.15M ionic strength, pH 7.0-7.4, 20-23° C., read-out: Kd (Ca2+), before photolysis); 0.15 µM in data set [3]. Besides, the “stability on concentration to a solid (in words)” value in data set [2] (from dilute aqueous base, concentrated to a solid) is “decomposes and becomes light-insensitive”. For the same compound, the “stability in dilute aqueous base (in words)” value in data set [2] (methanol/aqueous KOH, room temperature, several hours to overnight) is listed as “stable”. Besides, the “stability in strong aqueous base or acid (in words)” value in data set [2] (pH>13 or pH<4) is given as “unstable”. For the same compound, the “sequestering Ca2+ after photolysis (in words)” value in the data set with cells is “effective in sequestering Ca^2+ after photolysis”.
As to `COc1cc(C(=O)C=[N+]=[N-])ccc1N(CC(=O)O)CC(=O)O` [diazo-3, 2-methoxy-4-(diazoacetyl)aniline-N, N-diacetic acid], the Kd in data set [1] (negligible affinity, pre- and post-photolysis, read-out: Kd (Ca2+)) is > 1000 µM. In data set [4] (100 μM diazo-3, 200 mM lysine.HCl (so in the source)), this compound displayed a covalently modified lysines of 6 lysines in 10^5. Besides, in data set [4] (100 μM diazo-3 photolyzed in 100 mM lysine.HCl), the “frequency of covalent lysine modification” value was “about 6×10^-5”. In addition, the “absorbance under new (lysine-modified) peak” value in data set [4] (100 μM diazo-3 photolyzed in 100 mM lysine.HCl, % of total absorbance) is “about 6%”. Also, the modified lysine produced result in data set [4] (100 μM diazo-3 photolyzed in 100 mM lysine.HCl, calculated) is “about 6 μM”.
